Reference: US9233098B2, “Nitrogen-containing fused ring compounds as CRTH2 antagonists” (KBP Biosciences Co., Ltd., priority 2011, dated 2016)
Marks after values point to notes of the source that are not given here.

The compounds below were run against T1, CRTH2 receptor (Homo sapiens, UniProt Q9Y5Y4) (assay: Calcium flux FLIPR assay, antagonism against CRTH2 receptor (PGD2 at EC80)). Details: CHO-K1/CRTH2/Gα15 cells; blocking activation induced by PGD2 at EC80.
T1 construct: host or cells: CHO-K1/CRTH2/Gα15
T1 sequence (Q9Y5Y4 1-395): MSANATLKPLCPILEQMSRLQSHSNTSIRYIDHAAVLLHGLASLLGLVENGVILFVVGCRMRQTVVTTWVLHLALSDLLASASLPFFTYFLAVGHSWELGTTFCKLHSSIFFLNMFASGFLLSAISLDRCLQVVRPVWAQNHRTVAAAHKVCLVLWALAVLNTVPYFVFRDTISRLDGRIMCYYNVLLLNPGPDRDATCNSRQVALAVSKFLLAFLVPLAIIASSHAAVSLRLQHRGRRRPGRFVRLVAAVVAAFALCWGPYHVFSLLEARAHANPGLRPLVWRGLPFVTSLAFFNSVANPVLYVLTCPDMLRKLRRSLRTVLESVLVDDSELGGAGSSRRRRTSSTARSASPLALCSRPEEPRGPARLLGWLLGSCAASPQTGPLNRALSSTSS
Format: cell-based
Protocol: Test procedure The test was performed by Nanjing GenScript Biotech Ltd. by calcium flux assay. Test procedure and results are as follows:
Material for test was weighed accurately, and DMSO was added to dissolve the material for test, mixed and homogenized sufficiently, and formulated to 50 mM. And then, it was diluted to 50 μM by using 20 mM HEPES (hydroxyethylpiperazine ethanesulfonic acid) buffer solution at pH 7.4, and the maximum concentration of the compound was 10000 nM. It was further diluted by 3 folds as a series, and consecutively diluted to 10 concentrations, to reserve.
FLIPR Assay (Real Time Fluorescence Imaging Analysis)
In a 384 black microwell plate, 20 μl of cell solution containing 20000 CHO-K1/CRTH2/Gα15 was added, and was incubated at 37° C., 5% CO2 for 18 h. Then, 20 μl of stain in the FLIPR® Calcium 4 assay kit (kit) was added, and 10 μl of compound solution was added. Then, it was incubated at 37° C. for 60 min, and was incubated at room temperature for 15 min. Within 20 seconds, PGD2 HEPES buffer solution of an agonist PGD2 (prostaglandin D2) at the concentration of EC80 was added, and the values of fluorescence of 21-120 seconds were detected.
Data Processing ΔRFU(Relative fluorescence intensity)=maximum fluorescence value of 21-120 seconds−average value of fluorescence value of 1-20 seconds. Inhibition ratio={1−(ΔRFUcompound−ΔRFUbackground)/(ΔRFUagonists control−ΔRFUbackground)}×100 IC50 values of the compounds (i.e. the concentration of the compound for test needed for blocking 50% of the activation of CRTH2 receptor induced by PGD2 at the concentration of EC80) were calculated based on the inhibition ratios. Test Results and Conclusions

| IC50 [nM] | Structure (SMILES) |
| --- | --- |
| 2.6 | Cc1c(CC(=O)O)c2ccccc2n1Cc1ccc(NC(=O)c2ccc3ccccc3c2)cc1 [Compound 1, 2-[1-[4-(2-naphthamido)benzyl]-2-methyl-1H-indol-3-yl]acetic acid] |
| 2.3 | O=C(O)Cn1nc(Cc2ccc(NC(=O)c3ccc4ccccc4c3)cc2)c2ccccc21 [Compound 5, 2-[3-(4-(2-naphthamido)benzyl)-1H-indazol-1-yl]acetic acid] |
| 3.6 | O=C(O)Cc1nn(Cc2ccc(NC(=O)c3ccc4ccccc4c3)cc2)c2ccccc12 [Compound 9, 2-[1-[4-(2-naphthamido)benzyl]-1H-indazol-3-yl]acetic acid] |
| 2.3 | Cc1c(Cc2ccc(NC(=O)c3ccc4ccccc4c3)cc2)c2ccccc2n1CC(=O)O [Compound 2, 2-[3-[4-(2-naphthamido)benzyl]-2-methyl-1H-indol-1-yl]acetic acid] |
| 7 | CCc1c(Cc2ccc(NC(=O)c3ccc4ccccc4c3)cc2)c2ccccc2n1CC(=O)O [Compound 7, 2-[3-[4-(2-naphthamido)benzyl]-2-ethyl-1H-indol-1-yl]acetic acid] |
| 14.9 | O=C(O)Cc1nn(Cc2ccc(NC(=O)c3ccc4ccccc4c3)cc2)c2cc(F)ccc12 [Compound 12, 2-[1-[4-(2-naphthamido)benzyl]-6-fluoro-1H-indazol-3-yl]acetic acid] |

Second part, the compound before the results:

| Structure (SMILES) | IC50 [nM] |
| --- | --- |
| O=C(O)Cc1nn(Cc2ccc(NC(=O)c3ccc4ccccc4c3)cc2)c2ncccc12 [Compound 23, 2-[1-[4-(2-naphthamido)benzyl]-1H-pyrazolo[3,4-b]pyridin-3-yl]acetic acid] | 5.7 |
| O=C(O)Cn1nc(Cc2ccc(NC(=O)c3ccc(Cl)cc3)cc2)c2ccccc21 [Compound 8, 2-[3-[4-(4-chlorobenzamido)benzyl]-1H-indazol-1-yl]acetic acid] | 9.7 |
| Cc1c(Cc2ccc(NC(=O)c3ccc(Cl)cc3)cc2)c2ccccc2n1CC(=O)O [Compound 6, 2-[3-[4-(4-chlorobenzamido)benzyl]-2-methyl-1H-indol-1-yl]acetic acid] | 0.5 |
| O=C(O)Cc1nn(Cc2ccc(NC(=O)c3ccc4ccccc4c3)cc2)c2ccc(F)cc12 [Compound 11, 2-[1-[4-(2-naphthamido)benzyl]-5-fluoro-1H-indazol-3-yl]acetic acid] | 1.19 |
| O=C(O)CCn1c2c(c3ccccc31)C[C@H](NS(=O)(=O)c1ccc(F)cc1)CC2 [Ramatroban, reference compound] | 10300 |
| Cc1c(Cc2ccc(NC(=O)c3ccc(Cl)c(Cl)c3)cc2)c2ccccc2n1CC(=O)O [Compound 4, 2-[3-[4-(3,4-dichlorobenzamido)benzyl]-2-methyl-1H-indol-1-yl]acetic acid] | 2.7 |
| O=C(O)Cc1nn(Cc2ccc(NC(=O)c3ccc4cc(F)ccc4c3)cc2)c2ccccc12 [Compound 13, 2-[1-[4-(6-fluoro-2-naphthamido)benzyl]-1H-indazol-3-yl]acetic acid] | 4.42 |
| Cc1c(Cc2ccc(NC(=O)c3ccc(C(F)(F)F)cc3)cc2)c2ccccc2n1CC(=O)O [Compound 3, 2-[2-methyl-3-[4-[4-(trifluoromethyl)benzamido]benzyl]-1H-indol-1-yl]acetic acid] | 6.2 |
| O=C(O)Cc1nn(Cc2ccc(NC(=O)c3ccc(Cl)cc3)cc2)c2ccccc12 [Compound 10, 2-[1-[4-(4-chlorobenzamido)benzyl]-1H-indazol-3-yl]acetic acid] | 7.3 |

These compounds were tested on OVA induced BALB/c mice asthma model (assay: OVA induced mice asthma model, cell count of pulmonary alveoli irrigating solution (oral administration)). Details: 30 mg/kg oral bid, Mean ± SEM.
Format: in vivo
Protocol: Test procedure and results are as follows:
After acclimation, female BALB/c mice were divided into a blank control group, a model group and an administration group based on body weight randomly. Animal groups, dosage of administration and volume of administration were as detailed in Table 2. The model group and the administration group were intraperitoneally injected with OVA (ovalbumin) solution (containing […] and 2 mg potassium aluminium sulfate) 0.1 mL/animal to allergize on days 1, 14, the blank control group was injected with PBS (phosphate buffer solution). On days 28, 29, 30, 1% OVA was atomized and inhaled continuously to activate for 30 min, for the blank control group replaced with PBS. On days 27, 28, 29, 30, 31, the animals were administered orally with the pharmaceutical and the solvent. The blank control group was administered with the solvent 2 times every day, 1 h before inhalation of PBS and 7 h after the inhalation; the model group was administered with the solvent 2 times every day, 1 h before the inhalation of OVA for activation and 7 h after activation; the administration group was administered with the pharmaceutical 2 times every day, 1 h before the inhalation of OVA for activation and 7 h after activation. On day 32, the animals were executed, immediately irrigated the lung with 0.5 mL PBS (containing 1% FBS) via bronchus, and the irrigation was repeated 2 times. The irrigating solutions were combined, centrifugated, and the cells were resuspended with 1.5 mL PBS (containing 1% FBS). Cell count of bronchus pulmonary alveoli irrigating solution.

| Structure (SMILES) | Acidophilic Cell | Lymphocytes | Macrophages | Neutrophilic Granulocyte | Total White Cell Count |
| --- | --- | --- | --- | --- | --- |
| O=C(O)Cc1nn(Cc2ccc(NC(=O)c3ccc4ccccc4c3)cc2)c2ccccc12 [Compound 9, 2-[1-[4-(2-naphthamido)benzyl]-1H-indazol-3-yl]acetic acid] | 35.26 ± 4.53** *10^4/mL | 1.33 ± 0.23 *10^4/mL | 55.38 ± 5.1** *10^4/mL | 6.66 ± 1.87* *10^4/mL | 98.63 ± 4.53** *10^4/mL |
